# Experimental data taken from patent US20050244490A1, “Dosing methods for beta-D-2',3'-dideoxy-2',3'-didehydro-5-fluorocytidine antiviral therapy” (priority 2003, published 2005).
# What was measured:
# HIV viral load = assay: Viral load decline on repeated dosing, β-D-D4FC and competing nucleosides; assay type: in vivo; settings: 50 mg QD, duration of dosing 10
# [1] = Food effect, fed versus fasted crossover (Cohort 4); settings: for AUC / AUC(0-inf) / CL/F / Cmax / half-life / Tmax: human, plasma, oral, 100 mg, PART B; for AUC: AUC(0-τ); for CL/F: CLtot/F; for half-life: t1/2 λz
# in vivo [2] = settings: rat
# in vivo [3] = settings: dog, 15 mg/kg
# [4] = Safety and tolerability of single oral doses
# From the text: (§1) Total of 18 HIV-1 infected males, aged 18-55 years, enrolled, 6 per treatment cohort.
# [5] = test system: AZT/3TC-resistant HIV-1 recombinant viruses; assay: microbe, parasite or virus in culture; assay type: cell-based
# Description: A panel of 22 viruses was constructed in the HXB2 background using the Protease and RT sequences from clinical isolates to determine Virco Profiling against recombinant clinical isolates (see FIGS. 7a and 7b). Viruses contained 2 to 17 mutations in RT frequently associated with nucleoside resistance, including: M184V, M41L, D67N, T215Y. IC50 values were determined using a high through-put reporter virus assay.
# clinical = settings: in vivo; for CL renal: CLr; for CL/F: CLtot/F
# Description: as §1
# In Cohort 3, subjects received either 100 mg, or 200 mg, or placebo.
# The data was analyzed using non-compartmental and two-compartmental models.
# HIV RNA levels were also determined using quantitative real-time RT-PCR.
# Plasma HIV-1 RNA levels were measured by quantitative reverse transcriptase-polymerase chain reaction (Q-RT-PCR) essentially as described by Stuyver, L. J. et al., “Antiviral activity and cellular toxicity of modified 2′,3′-dideoxy-2′,3′-didehydrocytidine analogues” Antimicrob Agents Chemother.
# wild type HIV-RT = biological target: T1, wild type HIV-RT (Human immunodeficiency virus type 1 group M subtype B, UniProt P04585); assay: Ki / Km for wild type HIV-RT; assay type: biochemical, HIV-1
# T1 construct: The Ki value for β-D-D4FC-TP for wild type HIV-RT
# [6] = 100 MG FED, coated tablet after high fat meal
compound,measurement,setting,value
"Nc1nc(=O)n(C2C=CC(CO)O2)cc1F [β-D-D4FC, β-D-2′,3′-Didehydro-2′,3′-dideoxy-5-fluorocytidine]",Viral Load Decline (log),HIV viral load,−1.67 log
same,Cmax and AUC values in the fed regimen as fraction of the fasted regimen,"[1]; 100 mg coated tablets, high fat meal",less than 1/10
same,AUC,"[1]; 100 MG FASTED, coated tablet",6110 ng·h/mL
same,AUC,[1]; [6],542 ng·h/mL
same,AUC(0-inf),"[1]; 100 MG FASTED, coated tablet",6170 ng·h/mL
same,AUC(0-inf),[1]; [6],643 ng·h/mL
same,CL/F,"[1]; 100 MG FASTED, coated tablet",478 mL/min
same,CL/F,[1]; [6],3380 mL/min
same,Cmax,"[1]; 100 MG FASTED, coated tablet",1160 ng/mL
same,Cmax,[1]; [6],90 ng/mL
same,half-life,"[1]; 100 MG FASTED, coated tablet",8.61 h
same,half-life,[1]; [6],4.38 h
same,Tmax,"[1]; 100 MG FASTED, coated tablet",1.83 h
same,Tmax,[1]; [6],2.5 h
same,AUC at 28 d,in vivo [2]; 15 mg/kg,70 µM·h
same,Cmax at 28 d,in vivo [2]; 15 mg/kg,17 µM
same,AUC at 28 d,in vivo [2]; 45 mg/kg,161 µM·h
same,Cmax at 28 d,in vivo [2]; 45 mg/kg,44 µM
same,AUC at 12 m,in vivo [3]; female,431 µM·h
same,Cmax at 12 m,in vivo [3]; female,69 µM
same,AUC at 12 m,in vivo [3]; male,401 µM·h
same,Cmax at 12 m,in vivo [3]; male,74 µM
same,serious adverse events,[4]; any dose level,no serious adverse events
same,tolerability of single doses,[4]; in vivo,well tolerated
same,target value of parent compound for >90% suppression,"[5]; AZT, 3TC and co-resistant variants",5 µM
same,IC90,"[5]; Human immunodeficiency virus 1, read-out: Average IC90 for AZT/3TC-R virus",5500 nM
same,activity against multi-drug resistant strains,[5]; Q151M or D69S insertions plus at least 5 additional mutations,only weakly active
same,suppression of most mutant variants tested,[5]; at 5 μM in vitro,≥ 90%
same,clinically significant HIV mutant strains inhibited,[5]; including AZT and 3TC resistant variants,more than 80%
same,reduction in activity,"[5]; recombinant viruses with as many as 10 mutations incl. M41L, M184V, D67N, L74V, K70R, T215Y or K219Q",less than 5 fold
same,mean terminal half-life in plasma (t1/2),"clinical; human, 50 mg",6.8±4.2 h to 15.6±12.4
same,mean t1/2,"clinical; human, 200 mg",11.3±1.6 hours to 14.3±3.1
same,oral bioavailability,"clinical; human, po",high oral bioavailability
same,mean plasma half-life (t1/2),"clinical; male, human",12.3 ± 4.0 h
same,Cmax,"clinical; male, human, 10 mg",~1 µM
same,AUC,"clinical; male, human, 10 mg, AUC Actual",3.6 ± 0.5 µM·h
same,AUC,"clinical; male, human, 10 mg, AUC(0-τ)",843 ng·h/mL
same,AUC(0-inf),"clinical; male, human, 10 mg",858 ng·h/mL
same,CL renal,"clinical; male, human, 10 mg",136 mL/min
same,CL/F,"clinical; male, human, 10 mg",196 mL/min
same,Cmax,"clinical; male, human, 10 mg, Cmax",197 ng/mL
same,Cmax,"clinical; male, human, 10 mg, Cmax Actual",0.87 ± 0.13 µM
same,Cmax,"clinical; male, human, 10 mg, lowest Cmax, at which a maximal effect of viral inhibition was obtained",0.87 µM
same,half-life,"clinical; male, human, 10 mg, t1/2 λz",4.2 h
same,Tmax,"clinical; male, human, 10 mg, tmax",1 h
same,AUC,"clinical; male, human, 25 mg, AUC Actual",8.1 ± 1.5 µM·h
same,AUC,"clinical; male, human, 25 mg, AUC(0-τ)",1830 ng·h/mL
same,AUC(0-inf),"clinical; male, human, 25 mg",1840 ng·h/mL
same,CL renal,"clinical; male, human, 25 mg",120 mL/min
same,CL/F,"clinical; male, human, 25 mg",230 mL/min
same,Cmax,"clinical; male, human, 25 mg, Cmax",406 ng/mL
same,Cmax,"clinical; male, human, 25 mg, Cmax Actual",1.8 ± 0.5 µM
same,half-life,"clinical; male, human, 25 mg, t1/2 λz",4.49 h
same,Tmax,"clinical; male, human, 25 mg, tmax",1.17 h
same,AUC(0-τ),"clinical; male, human, 50 mg","3,196 ng · h/mL"
same,AUC(0-∞),"clinical; male, human, 50 mg","3,221 ng · h/mL"
same,CLr,"clinical; male, human, 50 mg",4.30 L/h
same,CLtot/F,"clinical; male, human, 50 mg","17,492 mL/h"
same,Cmax,"clinical; male, human, 50 mg",572 ng/mL
same,t1/2 λz,"clinical; male, human, 50 mg",7.02 h
same,AUC,"clinical; male, human, 50 mg, AUC Actual",27 ± 6.4 µM·h
same,AUC,"clinical; male, human, 50 mg, AUC(0-τ)",3470 ng·h/mL
same,AUC(0-inf),"clinical; male, human, 50 mg",3500 ng·h/mL
same,CL renal,"clinical; male, human, 50 mg",73.2 mL/min
same,CL/F,"clinical; male, human, 50 mg",245 mL/min
same,Cmax,"clinical; male, human, 50 mg, Cmax",668 ng/mL
same,Cmax,"clinical; male, human, 50 mg, Cmax Actual",4.8 ± 1.3 µM
same,Cmax,"clinical; male, human, 50 mg, mean Cmax",2.5 µM
same,half-life,"clinical; male, human, 50 mg, t1/2 λz",7.73 h
same,Tmax,"clinical; male, human, 50 mg, tmax",1 h
same,AUC,"clinical; male, human, 100 mg, AUC Actual",32.7 ± 6.8 µM·h
same,AUC,"clinical; male, human, 100 mg, AUC(0-τ)",7010 ng·h/mL
same,AUC(0-inf),"clinical; male, human, 100 mg",7100 ng·h/mL
same,CL renal,"clinical; male, human, 100 mg",124 mL/min
same,CL/F,"clinical; male, human, 100 mg",242 mL/min
same,Cmax,"clinical; male, human, 100 mg, Cmax",1120 ng/mL
same,Cmax,"clinical; male, human, 100 mg, Cmax Actual",5 ± 1.2 µM
same,half-life,"clinical; male, human, 100 mg, t1/2 λz",9.25 h
same,Tmax,"clinical; male, human, 100 mg, tmax",2.92 h
same,AUC,"clinical; male, human, 200 mg, AUC Actual",52.5 ± 9.2 µM·h
same,AUC,"clinical; male, human, 200 mg, AUC(0-τ)",11200 ng·h/mL
same,AUC(0-inf),"clinical; male, human, 200 mg",11400 ng·h/mL
same,CL renal,"clinical; male, human, 200 mg",125 mL/min
same,CL/F,"clinical; male, human, 200 mg",301 mL/min
same,Cmax,"clinical; male, human, 200 mg, Cmax",1750 ng/mL
same,Cmax,"clinical; male, human, 200 mg, Cmax Actual",7.7 ± 1.6 µM
same,Tmax,"clinical; male, human, 200 mg, mean Tmax",2.9 ± 1.6 h
same,half-life,"clinical; male, human, 200 mg, t1/2 λz",10.9 h
same,Tmax,"clinical; male, human, 200 mg, tmax",3.33 h
same,Tmax,"clinical; male, human, mean Tmax",1.1 ± 0.2 h
same,half-life,"clinical; male, human, mean plasma half-life (t1/2)",12.3 ± 4 h
same,AUC Projected,"clinical; male, human, po, 10 mg",5.0 µM·h
same,Cmax,"clinical; male, human, po, 10 mg",0.63 µM
same,AUC,"clinical; male, human, po, 10 mg, AUC",3.57 ± 0.55 µM·h
same,Cmax,"clinical; male, human, po, 10 mg, Cmax",0.87 ± 0.13 µM
same,half-life,"clinical; male, human, po, 10 mg, T ½",6.8 ± 4.2 h
same,Tmax,"clinical; male, human, po, 10 mg, Tmax",1 h
same,AUC Projected,"clinical; male, human, po, 25 mg",12.5 µM·h
same,Cmax,"clinical; male, human, po, 25 mg",1.6 µM
same,AUC,"clinical; male, human, po, 25 mg, AUC",8.12 ± 1.47 µM·h
same,Cmax,"clinical; male, human, po, 25 mg, Cmax",1.76 ± 0.48 µM
same,half-life,"clinical; male, human, po, 25 mg, T ½",15.6 ± 12.4 h
same,Tmax,"clinical; male, human, po, 25 mg, Tmax",1.4 ± 1.1 h
same,AUC,"clinical; male, human, po, 50 mg",28.03 ± 4.51 µM·h
same,AUC Projected,"clinical; male, human, po, 50 mg",25 µM·h
same,T ½,"clinical; male, human, po, 50 mg",13.8 ± 2.4 h
same,AUC,"clinical; male, human, po, 50 mg, AUC",25.9 ± 8.3 µM·h
same,Cmax,"clinical; male, human, po, 50 mg, Cmax",4.4 ± 1.6 µM
same,half-life,"clinical; male, human, po, 50 mg, T ½",14.3 ± 3.1 h
same,Tmax,"clinical; male, human, po, 50 mg, Tmax",2 ± 0.8 h
same,AUC Projected,"clinical; male, human, po, 100 mg",50 µM·h
same,Cmax,"clinical; male, human, po, 100 mg",6.3 µM
same,AUC,"clinical; male, human, po, 100 mg, AUC",32.7 ± 6.85 µM·h
same,Cmax,"clinical; male, human, po, 100 mg, Cmax",4.95 ± 1.2 µM
same,half-life,"clinical; male, human, po, 100 mg, T ½",11.3 ± 1.6 h
same,Tmax,"clinical; male, human, po, 100 mg, Tmax",2.9 ± 1 h
same,AUC Projected,"clinical; male, human, po, 200 mg",100 µM·h
same,Cmax,"clinical; male, human, po, 200 mg",12.6 µM
same,AUC,"clinical; male, human, po, 200 mg, AUC",52.5 ± 9.2 µM·h
same,Cmax,"clinical; male, human, po, 200 mg, Cmax",7.7 ± 1.6 µM
same,half-life,"clinical; male, human, po, 200 mg, T ½",12 ± 0.6 h
same,Tmax,"clinical; male, human, po, 200 mg, Tmax",3.3 ± 1.6 h
same,time plasma levels remain above the median effective concentrations in human PBM cells,clinical; male,> 24 h
same,Ki,wild type HIV-RT,100 nM
